Laboratory results taken from ChEMBL document CHEMBL2021922, “Identification of a Potent and Selective Cannabinoid CB1 Receptor Antagonist from Auxarthron reticulatum” (ACS Med Chem Lett, 2011).
Calls of active or inactive are those of the source. The calls are words filed in the database; no cut-off is given here.

Columns and labels:
[1] = molecular target: Cannabinoid receptor 1 (Homo sapiens, UniProt P21554); assay: Displacement of [3H]CP55940 from human recombinant CB1 receptor expressed in CHO cells after 2 hrs by liquid scintillation counting; format: cell-based
Chain of Cannabinoid receptor 1 (P21554 whole entry): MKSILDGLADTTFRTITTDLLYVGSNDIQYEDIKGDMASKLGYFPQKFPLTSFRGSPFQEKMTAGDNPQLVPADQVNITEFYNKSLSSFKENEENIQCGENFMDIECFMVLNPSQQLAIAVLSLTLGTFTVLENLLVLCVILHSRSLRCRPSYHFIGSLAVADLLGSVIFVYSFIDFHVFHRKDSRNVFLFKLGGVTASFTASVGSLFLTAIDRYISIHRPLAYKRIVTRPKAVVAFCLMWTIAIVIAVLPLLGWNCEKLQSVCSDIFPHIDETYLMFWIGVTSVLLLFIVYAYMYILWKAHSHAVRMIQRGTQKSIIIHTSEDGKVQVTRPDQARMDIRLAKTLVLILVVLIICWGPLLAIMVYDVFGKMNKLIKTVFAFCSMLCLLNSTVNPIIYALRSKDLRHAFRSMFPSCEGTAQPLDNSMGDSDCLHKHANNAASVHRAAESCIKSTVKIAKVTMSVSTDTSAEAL

[2] = molecular target: Cannabinoid receptor 2 (Homo sapiens) (UniProt P34972); assay: Displacement of [3H]CP55940 from human recombinant CB2 receptor expressed in CHO cells at 10 uM after 2 hrs by liquid scintillation counting; format: cell-based
Chain of Cannabinoid receptor 2 (Homo sapiens) (P34972 whole entry): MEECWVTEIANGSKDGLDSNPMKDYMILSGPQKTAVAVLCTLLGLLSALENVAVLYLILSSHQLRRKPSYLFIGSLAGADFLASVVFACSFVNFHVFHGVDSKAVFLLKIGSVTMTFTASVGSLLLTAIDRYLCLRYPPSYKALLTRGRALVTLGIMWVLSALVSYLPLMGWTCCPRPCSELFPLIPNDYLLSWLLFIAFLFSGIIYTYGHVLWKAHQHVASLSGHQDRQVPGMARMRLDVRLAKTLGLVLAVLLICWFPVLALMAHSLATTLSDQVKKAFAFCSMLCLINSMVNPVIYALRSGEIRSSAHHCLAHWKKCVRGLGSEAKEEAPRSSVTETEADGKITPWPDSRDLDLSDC

Ki [1]: 178 nM
Activity [2]: inactive
SMILES: C=CC(C)(C)[C@@]12C[C@H]3C(=O)N4[C@@H](C[C@@]5(C(C)(C)C=C)c6ccccc6N[C@@H]45)C(=O)N3[C@@H]1Nc1ccccc12 [AMAUROMINE]
